The source of these data is patent US20230149420A1, “ANTI-INFLAMMATORY IMMUNOENHANCER” (SCENT SCIENCE INTERNATIONAL INC., priority 2020, published 2023).

Assay type in all cases: in vivo, C57/BL6 mice
Conditions in all cases: 200 μl of 1% solution i.p., blood 16 hr later, vs saline

In experiment [1] the test system is neutrophils in the whole blood cells. Nature of the experiment: ratio of neutrophils in whole blood cells, Siemens Advia 120 (Examples 12, 13). The procedure:
About 3-month-old C57/BL6 mice were intraperitoneally injected with 200 μl of saline (control) or 1% solution of respective compounds (dissolved in saline). Blood was collected 16 hr later, and the ratio of neutrophils in the whole blood cells was measured using Siemens Advia 120.

Experiment [2] deals with neutrophils in the peripheral blood. The experiment in a line: number of neutrophils in peripheral blood, Siemens Advia 120 (Examples 4, 5). On the procedure:
About 3-month-old C57/BL6 mice were intraperitoneally injected with 200 μl of saline (control) or 1% solution of respective compounds (dissolved in saline). Blood was collected 16 hr later, and the number of neutrophils in the peripheral blood was measured using Siemens Advia 120.

The subject of experiment [3] is monocytes in the peripheral blood. The experiment in a line: number of monocytes in peripheral blood, Siemens Advia 120 (Examples 6, 7). The procedure:
About 3-month-old C57/BL6 mice were intraperitoneally injected with 200 μl of saline (control) or 1% solution of respective compounds (dissolved in saline). Blood was collected 16 hr later, and the number of monocytes in the peripheral blood was measured using Siemens Advia 120.
About 3-month-old C57/BL6 mice were intraperitoneally injected with 200 μl of saline (control) or 1% allyl isothiocyanate solution (dissolved in saline). Blood was collected 16 hr later, and the number of monocytes in the peripheral blood was measured using Siemens Advia 120.

Experiment [4] deals with monocytes in the whole blood cells. Nature of the experiment: ratio of monocytes in whole blood cells, Siemens Advia 120 (Examples 10, 11). On the procedure:
About 3-month-old C57/BL6 mice were intraperitoneally injected with 200 μl of saline (control) or 1% solution of respective compounds (dissolved in saline). Blood was collected 16 hr later, and the ratio of monocytes in the whole blood cells was measured using Siemens Advia 120.
About 3-month-old C57/BL6 mice were intraperitoneally injected with 200 μl of saline (control) or 1% allyl isothiocyanate solution (dissolved in saline). Blood was collected 16 hr later, and the ratio of monocytes in the whole blood cells was measured using Siemens Advia 120.

The test system of experiment [5] is basophils in the whole blood cells. The experiment in a line: ratio of basophils in whole blood cells, Siemens Advia 120 (Example 14). The procedure: About 3-month-old C57/BL6 mice were intraperitoneally injected with 200 μl of saline (control) or 1% solution of respective compounds (dissolved in saline). Blood was collected 16 hr later, and the ratio of basophils in the whole blood cells was measured using Siemens Advia 120.

`Cc1cccs1` [2-Methylthiophene]: the “ratio of neutrophils in the whole blood cells” value (“ratio of neutrophils” below) in experiment [1] is “increases”.

Turning to `C=CCN=C=S` [Allyl isothiocyanate], in experiment [2], the “neutrophils in the peripheral blood (number)” value (from here on “neutrophils … (number)”) is reported as “increase”. Moreover, the “number of monocytes in the peripheral blood” value in experiment [3] was “increases”. The “ratio of monocytes in the whole blood cells” value (“ratio of monocytes” below) in experiment [4] is reported as “increases”. Also, the “ratio of neutrophils” value in experiment [1] was “increases”. For `CCCCCCc1cccs1` [2-Hexylthiophene], the “neutrophils … (number)” value in experiment [2] was “increase”. In addition, the “ratio of neutrophils” value in experiment [1] is recorded as “increases”.

`CC(=O)c1cc(C)oc1C` [3-Acetyl-2,5-dimethylfuran]: the “ratio of basophils in the whole blood cells” value (“ratio of basophils” below) in experiment [5] is “increases”. On to “2-Methyl-(3 or 5 or 6)-methylthio pyrazine [2-Methyl-(3 or 5 or 6)-methylthio pyrazine (mixture of isomers)]”, for which, in experiment [4], the “ratio of monocytes” value is reported as “increases”. In experiment [1], the “ratio of neutrophils” value was “increases”. On to `CC1NCCSC1C` (centres unmarked) [2,3-Dimethylthiomorpholine], for which the “ratio of monocytes” value in experiment [4] was “increases”. With `CCc1nccnc1C(C)=O` [2-Acetyl-3-ethylpyrazine], the “ratio of monocytes” value in experiment [4] was “increases”. Besides, the “ratio of neutrophils” value in experiment [1] is “increases”. Also, the “ratio of basophils” value in experiment [5] is recorded as “increases”.

As for `C=C(C)CN=C=S` [Methallyl isothiocyanate], in experiment [2], the “neutrophils … (number)” value is “increase”. For the same molecule, in experiment [1], the “ratio of neutrophils” value is given as “increases”.

In the case of `C=CCSC1=NCCS1` [2-(Allylthio)-2-thiazoline], the “number of monocytes in the peripheral blood” value in experiment [3] is recorded as “increase”. In addition, in experiment [4], the “ratio of monocytes” value was “increases”. As for `Cc1nccs1` [2-Methylthiazole], in experiment [1], the “ratio of neutrophils” value is reported as “increases”. The “ratio of basophils” value in experiment [5] is listed as “increases”. Regarding `C1CSCCN1` [Thiomorpholine], in experiment [4], the “ratio of monocytes” value is given as “increases”.

In the case of `CC(=O)c1sc(C)nc1C` [5-Acetyl-2,4-dimethylthiazole], the “neutrophils … (number)” value in experiment [2] is reported as “increase”. Further, the “ratio of neutrophils” value in experiment [1] is “increases”. The “ratio of basophils” value in experiment [5] is given as “increases”. Consider `CC1CNCCS1` (centres unmarked) [2-Methylthiomorpholine], for which the “neutrophils … (number)” value in experiment [2] is on record as “increase”. Moreover, the “ratio of neutrophils” value in experiment [1] is reported as “increases”. Regarding `Cc1nc(C(C)(C)C)cs1` [4-tert-Butyl-2-methylthiazole], in experiment [2], the “neutrophils … (number)” value is on record as “increase”. On to `CSC1CSC=N1` (centres unmarked) [4-(Methylthio)-2-thiazoline], for which the “neutrophils … (number)” value in experiment [2] is reported as “increase”. In addition, in experiment [4], the “ratio of monocytes” value is “increases”. Besides, the “ratio of neutrophils” value in experiment [1] is “increases”. Take `CCc1ccc[nH]1` [2-Ethylpyrrole]: the “ratio of neutrophils” value in experiment [1] is reported as “increases”. Also, in experiment [5], the “ratio of basophils” value is recorded as “increases”. Consider `C1CCCNCC1` [Azepane], for which, in experiment [2], the “neutrophils … (number)” value is recorded as “increase”. The “ratio of monocytes” value in experiment [4] is listed as “increases”. Further, the “ratio of neutrophils” value in experiment [1] is “increases”.

`Cc1cc[nH]c1` [3-Methylpyrrole]: in experiment [1], the “ratio of neutrophils” value is reported as “increases”. `CC1(C)NCCS1` [2,2-Dimethylthiazolidine]: the “ratio of neutrophils” value in experiment [1] was “increases”. Besides, in experiment [5], the “ratio of basophils” value is “increases”. Regarding `O=C1CSC(=O)N1` [Thiazolidine-2,4-dione], the “neutrophils … (number)” value in experiment [2] is “increase”. For the molecule `Cc1ncsc1C` [4,5-Dimethylthiazole], the “neutrophils … (number)” value in experiment [2] is recorded as “increase”. In experiment [4], the “ratio of monocytes” value is listed as “increases”. The “ratio of neutrophils” value in experiment [1] is recorded as “increases”. Consider `Cc1cc2ccccc2[nH]1` [2-Methylindole], for which, in experiment [4], the “ratio of monocytes” value is “increases”. Turning to `CC(C)Cc1nccs1` [2-Isobutylthiazole], the “ratio of neutrophils” value in experiment [1] is on record as “increases”. `c1ccc2sccc2c1` [Benzothiophene]: the “neutrophils … (number)” value in experiment [2] was “increase”. In experiment [1], the “ratio of neutrophils” value is reported as “increases”. The matching figures for `CCc1nccnc1CC` [2,3-Diethylpyrazine]: “increase” and “increases”. In the case of `Cc1nc(C)c(C)s1` [2,4,5-Trimethylthiazole], in experiment [1], the “ratio of neutrophils” value is given as “increases”. As to `C=CCCCN=C=S` [4-Pentenyl Isothiocyanate], the “neutrophils … (number)” value in experiment [2] was “increase”. For the same molecule, the “ratio of neutrophils” value in experiment [1] was “increases”. As to `Clc1ccsc1` [3-Chlorothiophene], the “neutrophils … (number)” value in experiment [2] is “increase”. Moreover, the “ratio of monocytes” value in experiment [4] is “increases”. In experiment [1], the “ratio of neutrophils” value is recorded as “increases”. For the same molecule, the “ratio of basophils” value in experiment [5] is given as “increases”. Take `CC(=O)c1cc(C)sc1C` [3-Acetyl-2,5-dimethylthiophene]: in experiment [2], the “neutrophils … (number)” value is reported as “increase”. Also, the “ratio of monocytes” value in experiment [4] was “increases”. The “ratio of neutrophils” value in experiment [1] is given as “increases”. For the same molecule, the “ratio of basophils” value in experiment [5] is given as “increases”. For the molecule `CC(=O)c1cccn1C` [2-Acetyl-1-methylpyrrole], in experiment [2], the “neutrophils … (number)” value was “increase”. Moreover, the “ratio of neutrophils” value in experiment [1] is listed as “increases”. The matching figures for `CC(=O)c1cccnc1` [3-Acetylpyridine]: “increase” and “increases”. On to `CCc1ccco1` [2-Ethylfuran], for which the “ratio of basophils” value in experiment [5] is “increases”. `CSc1nc2ccccc2s1` [2-(Methylthio)benzothiazole]: the “neutrophils … (number)” value in experiment [2] is “increase”. Further, the “ratio of neutrophils” value in experiment [1] was “increases”. As for `Cc1ccsc1` [3-Methylthiophene], the “ratio of basophils” value in experiment [5] is given as “increases”. In the case of `CC(=O)c1nccs1` [2-Acetylthiazole], the “ratio of neutrophils” value in experiment [1] is reported as “increases”. For the same molecule, the “ratio of basophils” value in experiment [5] is on record as “increases”. For the molecule `CSCCCN=C=S` [3-(Methylthio)propyl isothiocyanate], in experiment [2], the “neutrophils … (number)” value is “increase”. For `CCOc1nccs1` [2-Ethoxythiazole], the “neutrophils … (number)” value in experiment [2] is on record as “increase”. Moreover, in experiment [4], the “ratio of monocytes” value is “increases”. In addition, in experiment [1], the “ratio of neutrophils” value was “increases”.

As to `CC(=O)c1ccc[nH]1` [2-Acetylpyrrole], the “neutrophils … (number)” value in experiment [2] is on record as “increase”. Besides, in experiment [1], the “ratio of neutrophils” value was “increases”.

Take `Cc1c[nH]c(C)c1` [2,4-Dimethylpyrrole]: the “ratio of neutrophils” value in experiment [1] is listed as “increases”. For `Clc1nccs1` [2-Chlorothiazole], the “ratio of neutrophils” value in experiment [1] is on record as “increases”. In addition, the “ratio of basophils” value in experiment [5] is given as “increases”.

As for `Cc1csc(C(C)C)n1` [2-Isopropyl-4-methylthiazole], the “ratio of neutrophils” value in experiment [1] is on record as “increases”. Moreover, the “ratio of basophils” value in experiment [5] is “increases”.

Regarding `CCc1cccs1` [2-Ethylthiophene], the “neutrophils … (number)” value in experiment [2] is listed as “increase”. In the case of `c1coc(Cn2cccc2)c1` [1-Furfurylpyrrole], the “ratio of neutrophils” value in experiment [1] was “increases”. In the case of `O=C1CSc2ccccc2N1` [2H-1,4-benzothiazin-3(4H)one], the “neutrophils … (number)” value in experiment [2] is recorded as “increase”. In addition, the “ratio of neutrophils” value in experiment [1] is recorded as “increases”. For the molecule `c1cscn1` [Thiazole], in experiment [1], the “ratio of neutrophils” value is given as “increases”. In the case of `CSC1=NCCS1` [2-(Methylthio)-2-thiazoline], the “neutrophils … (number)” value in experiment [2] was “increase”. Further, the “ratio of neutrophils” value in experiment [1] was “increases”. For the molecule `CC(C)N=C=S` [Isopropyl isothiocyanate], the “neutrophils … (number)” value in experiment [2] is reported as “increase”. Still for that read-out and setting: next, `CC1=NC(CC(C)C)SC1C` (centres unmarked) [2-Isobutyl-4,5-dimethyl-3-thiazoline]: “increase”.

Regarding `S=C=NCc1ccccc1` [Benzyl isothiocyanate], the “neutrophils … (number)” value in experiment [2] was “increase”. For the same molecule, the “ratio of neutrophils” value in experiment [1] was “increases”. For `CCC(=O)c1cccs1` [2-Propionyl thiophene], the “ratio of neutrophils” value in experiment [1] is “increases”.
